≈ marks a conversion by molar mass, not a printed value.
Legend:
Jurkat = test: Antiproliferative activity against human Jurkat cells assessed as inhibition of cell proliferation incubated for 72 hrs by MTT assay; format: functional, cell-based
A549 [1] = test: Antiproliferative activity against human A549 cells assessed as inhibition of cell proliferation incubated for 72 hrs by MTT assay; format: functional, cell-based; settings: A549, 72 h
MCF7 [2] = test: Antiproliferative activity against human MCF7 cells assessed as inhibition of cell proliferation incubated for 72 hrs by MTT assay; format: functional, cell-based; settings: MCF7, 72 h
MCF7 [3] = test: Cytotoxicity against human MCF7 cells assessed as inhibition of cell growth incubated for 24 hrs by CCK-8 assay; format: functional, cell-based; settings: MCF7, 24 h
HeLa [4] = test: Cytotoxicity against human HeLa cells assessed as inhibition of cell growth incubated for 48 hrs by MTT spectrophotometric assay; format: functional, cell-based
SGC-7901 [5] = test: Cytotoxicity against human SGC-7901 cells assessed as inhibition of cell growth incubated for 48 hrs by MTT spectrophotometric assay; format: functional, cell-based; settings: SGC-7901, 48 h
A549 [6] = test: Cytotoxicity against human A549 cells assessed as inhibition of cell growth incubated for 48 hrs by MTT spectrophotometric assay; format: functional, cell-based; settings: A549, 48 h
Calf thymus DNA [7] = test: Binding affinity to calf thymus DNA assessed as binding constant by UV-Vis spectroscopic analysis; format: nucleic-acid assay; settings: Bos taurus
SK-MEL-28 [8] = test: Growth inhibition against human SK-MEL-28 cells at 10 uM incubated for 48 hrs by sulforhodamine B reagent assay; format: functional; settings: read-out: GI
MCF7 [9] = test: Antiproliferative activity against human MCF7 cells assessed as inhibition of cell proliferation; format: functional, cell-based
HT-29 = test: Antiproliferative activity against human HT-29 cells assessed as inhibition of cell proliferation; format: functional, cell-based
Calf thymus DNA [10] = test: Binding affinity to calf thymus DNA assessed as DNA intercalation by measuring change in melting temperature by thermal denaturation assay based UV-Vis spectrophotometric analysis; format: nucleic-acid assay; settings: Bos taurus
Calf thymus DNA [11] = test: Binding affinity to calf thymus DNA assessed as DNA intercalation by measuring change in melting temperature by thermal denaturation assay; format: nucleic-acid assay; settings: Bos taurus
HL-60 = test: Antiproliferative activity against human HL-60 cells assessed as inhibition of cell growth; format: functional, cell-based
A549 [12] = test: Antiproliferative activity against human A549 cells assessed as inhibition of cell growth; format: functional, cell-based
HeLa [13] = test: Antiproliferative activity against human HeLa cells assessed as inhibition of cell growth; format: functional, cell-based
Calf thymus DNA [14] = test: Binding affinity to calf thymus DNA assessed as binding constant incubated for 30 mins by fluorescence based EtBr-displacement assay; format: nucleic-acid assay; settings: Bos taurus
[15] = Antioxidant activity assessed as DPPH radical scavenging activity incubated for 30 mins by UV-Vis spectrophotometer assay; format: functional
[16] = Antioxidant activity assessed as hydrogen peroxide free radical scavenging activity incubated for 10 mins; format: functional
HCT-116 [17] = test: Cytotoxicity against human HCT-116 cells assessed as inhibition of cell growth incubated for 24 hrs by XTT assay; format: functional, cell-based; settings: HCT-116, 24 h
PANC-1 = test: Cytotoxicity against human PANC-1 cells assessed as inhibition of cell growth incubated for 24 hrs by XTT assay; format: functional, cell-based; settings: PANC-1, 24 h
HeLa [18] = test: Cytotoxicity against human HeLa cells assessed as inhibition of cell growth by MTT assay; format: functional, cell-based
MCF7 [19] = test: Cytotoxicity against human MCF7 cells assessed as inhibition of cell growth by MTT assay; format: functional, cell-based
SGC-7901 [20] = test: Cytotoxicity against human SGC-7901 cells assessed as inhibition of cell growth by MTT assay; format: functional, cell-based
A549 [21] = test: Cytotoxicity against human A549 cells assessed as inhibition of cell growth by MTT assay; format: functional, cell-based
Calf thymus DNA [22] = test: Binding affinity to calf thymus DNA assessed as DNA intercalation by measuring binding constant by fluorescence spectroscopic assay; format: nucleic-acid assay; settings: Bos taurus
K562 = test: Cytotoxicity against human K562 cells assessed as cell growth inhibition incubated for 48 hrs by sulforhodamine B reagent assay; format: functional, cell-based; settings: K562, 48 h
EKVX = test: Cytotoxicity against human EKVX cells assessed as cell growth inhibition incubated for 48 hrs by sulforhodamine B reagent assay; format: functional, cell-based
NCI-H322M = test: Cytotoxicity against human NCI-H322M cells assessed as cell growth inhibition incubated for 48 hrs by sulforhodamine B reagent assay; format: functional, cell-based
HCT-116 [23] = test: Cytotoxicity against human HCT-116 cells assessed as cell growth inhibition incubated for 48 hrs by sulforhodamine B reagent assay; format: functional, cell-based; settings: HCT-116, 48 h
KM12 = test: Cytotoxicity against human KM12 cells assessed as cell growth inhibition incubated for 48 hrs by sulforhodamine B reagent assay; format: functional, cell-based; settings: KM12, 48 h
SW-620 = test: Cytotoxicity against human SW620 cells assessed as cell growth inhibition incubated for 48 hrs by sulforhodamine B reagent assay; format: functional, cell-based; settings: SW-620, 48 h
SF-539 = test: Cytotoxicity against human SF-539 cells assessed as cell growth inhibition incubated for 48 hrs by sulforhodamine B reagent assay; format: functional, cell-based; settings: SF-539, 48 h
SNB-75 = test: Cytotoxicity against human SNB-75 cells assessed as cell growth inhibition incubated for 48 hrs by sulforhodamine B reagent assay; format: functional, cell-based; settings: SNB-75, 48 h
U-251 = test: Cytotoxicity against human U-251 cells assessed as cell growth inhibition incubated for 48 hrs by sulforhodamine B reagent assay; format: functional, cell-based; settings: U-251, 48 h
Malme-3M = test: Cytotoxicity against human Malme-3M cells assessed as cell growth inhibition incubated for 48 hrs by sulforhodamine B reagent assay; format: functional, cell-based
SK-MEL-28 [24] = test: Cytotoxicity against human SK-MEL-28 cells assessed as cell growth inhibition incubated for 48 hrs by sulforhodamine B reagent assay; format: functional, cell-based; settings: SK-MEL-28, 48 h
SK-MEL-5 = test: Cytotoxicity against human SK-MEL-5 cells assessed as cell growth inhibition incubated for 48 hrs by sulforhodamine B reagent assay; format: functional, cell-based; settings: SK-MEL-5, 48 h
OVCAR-4 = test: Cytotoxicity against human OVCAR-4 cells assessed as cell growth inhibition incubated for 48 hrs by sulforhodamine B reagent assay; format: functional, cell-based; settings: OVCAR-4, 48 h
786-0 = test: Cytotoxicity against human 786-0 cells assessed as cell growth inhibition incubated for 48 hrs by sulforhodamine B reagent assay; format: functional, cell-based; settings: 786-0, 48 h
RXF 393 = test: Cytotoxicity against human RXF 393 cells assessed as cell growth inhibition incubated for 48 hrs by sulforhodamine B reagent assay; format: functional, cell-based; settings: RXF 393, 48 h
DU-145 = test: Cytotoxicity against human DU-145 cells assessed as cell growth inhibition incubated for 48 hrs by sulforhodamine B reagent assay; format: functional, cell-based; settings: DU-145, 48 h
MCF7 [25] = test: Cytotoxicity against human MCF7 cells assessed as cell growth inhibition incubated for 48 hrs by sulforhodamine B reagent assay; format: functional, cell-based; settings: MCF7, 48 h
MDA-MB-231 = test: Cytotoxicity against human MDA-MB-231 cells assessed as cell growth inhibition incubated for 48 hrs by sulforhodamine B reagent assay; format: functional, cell-based; settings: MDA-MB-231, 48 h
Hs-578T = test: Cytotoxicity against human Hs-578T cells assessed as cell growth inhibition incubated for 48 hrs by sulforhodamine B reagent assay; format: functional, cell-based
T47D = test: Cytotoxicity against human T47D cells assessed as cell growth inhibition incubated for 48 hrs by sulforhodamine B reagent assay; format: functional, cell-based
BT-549 = test: Cytotoxicity against human BT-549 cells assessed as cell growth inhibition incubated for 48 hrs by sulforhodamine B reagent assay; format: functional, cell-based; settings: BT-549, 48 h
A2780 = test: Cytotoxicity against human A2780 cells assessed as inhibition of cell growth incubated for 72 hrs by SRB assay; format: functional, cell-based; settings: A2780, 72 h
Staphylococcus aureus = test: Antibacterial activity against Staphylococcus aureus MTCC 96 assessed as inhibition of bacterial growth by agar well diffusion assay; format: functional
[26] = tested on: Staphylococcus epidermidis; test: Antibacterial activity against Staphylococcus epidermidis MTCC 435 assessed as inhibition of bacterial growth by agar well diffusion assay; format: functional
Escherichia coli = test: Antibacterial activity against Escherichia coli MTCC 443 assessed as inhibition of bacterial growth by agar well diffusion assay; format: functional
Pseudomonas aeruginosa = test: Antibacterial activity against Pseudomonas aeruginosa MTCC 741 assessed as inhibition of bacterial growth by agar well diffusion assay; format: functional

O=C1c2cccc3cccc(c23)C(=O)N1CC/N=C/c1ccccn1
IC50 (Jurkat): 5580 nM
IC50 (A549 [1]): 5670 nM
IC50 (MCF7 [2]): 5670 nM

CN(C)CCCNc1ccc2c3c(cccc13)C(=O)N(CCCN(C)C)C2=O
IC50 (MCF7 [3]): 2040 nM

CN(C)CCN1C(=O)c2cccc3c(N4CCN(CCCO)CC4)ccc(c23)C1=O
IC50 (HeLa [4]): < 7000 nM
IC50 (SGC-7901 [5]): < 7000 nM
IC50 (A549 [6]): < 7000 nM
Kb (Calf thymus DNA [7]): 0.47 10^5/M

O=C1c2cccc3cccc(c23)C(=O)N1CCCCN1CCN(CCCCOc2ccc(-c3nc4ccc(N5CCOCC5)cc4[nH]3)cc2)CC1
inhibition of growth at 10 µM (SK-MEL-28 [8]): 50%

CC[n+]1ccn(CCCN2C(=O)c3cccc4cccc(c34)C2=O)c1
IC50 (MCF7 [9]): 4600 nM
IC50 (HT-29): 4600 nM
ΔTm (Calf thymus DNA [10]): 3 °C

CN(C)CCN1C(=O)c2cccc3c(NCCNCCN)ccc(c23)C1=O
ΔTm (Calf thymus DNA [11]): 11.8 °C
IC50 (HL-60): 13100 nM
IC50 (A549 [12]): 3160 nM
IC50 (HeLa [13]): 13100 nM

CCOc1cc(/C=N/N2C(=O)c3cccc4cccc(c34)C2=O)ccc1O
Kb (Calf thymus DNA [14]): 3.33 10^4/M
IC50 [15]: 1280 µg/mL (≈ 3550 µM)
IC50 [16]: 1060 µg/mL (≈ 2940 µM)

COS(=O)(=O)CCCCSc1ccc2c3c(cccc13)C(=O)N(CCN(C)C)C2=O
IC50 (HCT-116 [17]): 11700 nM
IC50 (PANC-1): 11700 nM

CN(C)CCN1C(=O)c2cccc3c(N4CCC[C@@H]4CO)ccc(c23)C1=O
IC50 (HeLa [18]): 870 nM
IC50 (MCF7 [19]): 870 nM
IC50 (SGC-7901 [20]): 870 nM
IC50 (A549 [21]): 870 nM
Kb (Calf thymus DNA [22]): 1.8 10^4/M

CN1CCN(c2ccc3nc(-c4ccc(OCCCN5C(=O)c6cccc7cccc(c67)C5=O)cc4)[nH]c3c2)CC1
IC50 (K562): 110 nM
IC50 (EKVX): 110 nM
IC50 (NCI-H322M): 110 nM
IC50 (HCT-116 [23]): 110 nM
IC50 (KM12): 110 nM
IC50 (SW-620): 110 nM
IC50 (SF-539): 110 nM
IC50 (SNB-75): 110 nM
IC50 (U-251): 110 nM
IC50 (Malme-3M): 110 nM
IC50 (SK-MEL-28 [24]): 110 nM
IC50 (SK-MEL-5): 110 nM
IC50 (OVCAR-4): 110 nM
IC50 (786-0): 110 nM
IC50 (RXF 393): 110 nM
IC50 (DU-145): 110 nM
IC50 (MCF7 [25]): 110 nM
IC50 (MDA-MB-231): 110 nM
IC50 (Hs-578T): 110 nM
IC50 (T47D): 110 nM
IC50 (BT-549): 110 nM

CN(C)CCCN1C(=O)c2cccc3c(NCCN)ccc(c23)C1=O
IC50 (MCF7 [3]): 56600 nM

CN(C)CCN1C(=O)c2cccc3c(NCCNCCNCCN)ccc(c23)C1=O
ΔTm (Calf thymus DNA [11]): 11.8 °C
IC50 (HL-60): 13100 nM
IC50 (A549 [12]): 13100 nM
IC50 (HeLa [13]): 13100 nM

CN(C)CCN1C(=O)c2cccc3c(NCCNCCNCCNCCN)ccc(c23)C1=O
ΔTm (Calf thymus DNA [11]): 11.8 °C
IC50 (HL-60): 13100 nM
IC50 (A549 [12]): 13100 nM
IC50 (HeLa [13]): 13100 nM

CN(C)CCCN1C(=O)c2cccc3c(NCCNC(=N)N)ccc(c23)C1=O
IC50 (MCF7 [3]): 10400 nM

O=C1c2ccc3c4c(ccc(c24)C(=O)N1c1nc(-c2cc4ccccc4oc2=O)cs1)C(=O)N(c1nc(-c2cc4ccccc4oc2=O)cs1)C3=O
ΔTm (Calf thymus DNA [11]): 0.1 °C
IC50 (A2780): < 100 nM
MIC (Staphylococcus aureus): 18.8 µg/mL (≈ 26 µM)
MIC [26]: 18.8 µg/mL (≈ 26 µM)
MIC (Escherichia coli): 18.8 µg/mL (≈ 26 µM)
MIC (Pseudomonas aeruginosa): 18.8 µg/mL (≈ 26 µM)

From ChEMBL document CHEMBL5244223, “l,8-Naphthalimide based DNA intercalators and anticancer agents. A systematic review from 2007 to 2017” (Eur J Med Chem, 2018)
